Source: patent US20180194762A1 (Pharmacyclics LLC, priority 2017, published 2018)
Like-named read-outs stand apart in the source and are kept apart here.

Assays:
Assay type in all cases: biochemical
TEC = biological target: T1, TEC (Homo sapiens, UniProt P42680); assay: Inhibition of a panel of kinases (in vitro HotSpot kinase assay, 33P-ATP, 1 μM ATP); details: for IC50: HotSpot kinase assay, 1 μM ATP; for TEC/Btk: ratio of TEC IC50 to Btk IC50 (selectivity)
T1 sequence (P42680 1-631): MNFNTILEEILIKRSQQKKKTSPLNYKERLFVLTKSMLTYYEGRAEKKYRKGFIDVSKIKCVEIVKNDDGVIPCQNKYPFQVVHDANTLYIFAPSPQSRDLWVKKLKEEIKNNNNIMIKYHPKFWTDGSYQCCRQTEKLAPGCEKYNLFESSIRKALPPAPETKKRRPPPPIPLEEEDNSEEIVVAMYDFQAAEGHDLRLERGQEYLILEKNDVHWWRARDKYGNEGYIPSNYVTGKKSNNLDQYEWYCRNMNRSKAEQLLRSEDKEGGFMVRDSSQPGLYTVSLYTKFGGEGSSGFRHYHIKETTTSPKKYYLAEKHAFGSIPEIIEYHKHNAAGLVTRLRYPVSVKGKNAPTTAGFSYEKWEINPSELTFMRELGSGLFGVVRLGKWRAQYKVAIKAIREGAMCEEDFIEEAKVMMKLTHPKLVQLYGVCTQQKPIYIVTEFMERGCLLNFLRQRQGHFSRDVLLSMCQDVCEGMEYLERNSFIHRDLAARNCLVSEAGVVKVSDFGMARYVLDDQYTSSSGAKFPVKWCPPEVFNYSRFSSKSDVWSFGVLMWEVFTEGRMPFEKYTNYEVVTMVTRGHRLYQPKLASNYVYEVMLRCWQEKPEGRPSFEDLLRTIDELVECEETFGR
Procedure, shortened: (§1)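 At 1 μM ATP spiked with 33P-ATP, substrate phosphorylation by the purified enzymes gives the extent of inhibition.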

Btk = biological target: T2, Btk (Homo sapiens, UniProt Q06187); assay: Btk in vitro inhibitory activity (one of Method A TR-FRET, Method B electrophoretic mobility shift, Method C radiometric filter binding)
T2 construct: purified from insect cells as a full-length construct containing a N-terminal 6X-His tag; His6 (N); made in house; host or cells: insect cells (Method C)
T2 sequence (Q06187 whole entry): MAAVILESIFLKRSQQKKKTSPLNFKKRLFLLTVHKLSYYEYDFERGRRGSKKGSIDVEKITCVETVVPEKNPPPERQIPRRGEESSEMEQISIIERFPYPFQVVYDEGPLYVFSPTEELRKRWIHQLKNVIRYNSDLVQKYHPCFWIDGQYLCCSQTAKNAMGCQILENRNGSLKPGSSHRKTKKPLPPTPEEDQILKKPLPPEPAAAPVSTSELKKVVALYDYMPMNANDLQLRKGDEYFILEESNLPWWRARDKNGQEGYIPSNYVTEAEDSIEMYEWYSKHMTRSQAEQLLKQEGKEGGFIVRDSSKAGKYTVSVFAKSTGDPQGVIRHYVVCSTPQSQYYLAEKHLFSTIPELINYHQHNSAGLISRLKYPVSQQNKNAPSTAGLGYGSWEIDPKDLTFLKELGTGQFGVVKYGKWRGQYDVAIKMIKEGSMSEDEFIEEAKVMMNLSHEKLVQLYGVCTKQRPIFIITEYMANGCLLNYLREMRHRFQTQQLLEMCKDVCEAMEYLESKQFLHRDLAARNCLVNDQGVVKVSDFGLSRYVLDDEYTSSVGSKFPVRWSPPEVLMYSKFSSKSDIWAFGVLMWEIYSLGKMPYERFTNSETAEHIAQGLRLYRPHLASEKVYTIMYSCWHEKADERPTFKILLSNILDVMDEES
Procedure, shortened: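 Three alternative formats were used. A radiometric filter-binding read used 8 nM full-length His-BTK with 0.2 mg/mL poly(Glu-Tyr) 4:1 (C); microfluidic separation of 1 μM FAM-peptide by 1 nM BTK gave IC50 from 12-point curves (B); TR-FRET at Km ATP, 0.5 nM Btk, gave Ki(app)-derived IC50 (A).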

panel of kinases = biological target: T3, panel of kinases (Homo sapiens, UniProt P51813); assay: Inhibition of a panel of kinases (in vitro HotSpot kinase assay, 33P-ATP, 1 μM ATP), other kinases; details: BMX wild-type, read-out: BMX-WT IC50
T3 sequence (P51813 1-675): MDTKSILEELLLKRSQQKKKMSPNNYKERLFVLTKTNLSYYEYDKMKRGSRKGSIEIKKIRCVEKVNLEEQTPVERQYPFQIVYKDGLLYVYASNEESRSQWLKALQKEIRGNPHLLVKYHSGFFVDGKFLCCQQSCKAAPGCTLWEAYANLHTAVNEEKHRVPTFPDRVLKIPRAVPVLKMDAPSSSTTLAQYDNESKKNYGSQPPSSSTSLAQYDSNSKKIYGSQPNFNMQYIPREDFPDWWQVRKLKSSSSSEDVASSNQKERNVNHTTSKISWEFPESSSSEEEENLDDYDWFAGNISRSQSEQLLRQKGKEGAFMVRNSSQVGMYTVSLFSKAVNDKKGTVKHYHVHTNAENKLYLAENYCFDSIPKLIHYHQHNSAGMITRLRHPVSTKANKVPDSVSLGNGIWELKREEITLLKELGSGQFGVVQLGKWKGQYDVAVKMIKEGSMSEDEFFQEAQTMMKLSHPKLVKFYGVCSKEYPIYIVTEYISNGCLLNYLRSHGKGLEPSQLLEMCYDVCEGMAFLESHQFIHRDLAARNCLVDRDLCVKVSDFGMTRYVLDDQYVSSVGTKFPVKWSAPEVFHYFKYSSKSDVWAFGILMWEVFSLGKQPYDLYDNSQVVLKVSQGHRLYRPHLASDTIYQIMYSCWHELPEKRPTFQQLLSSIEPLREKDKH
Procedure, shortened: as §1

[1] = wild-type Btk, read-out: Btk-WT IC50
[2] = method is one of A, B or C, not stated which, read-out: IC50 values against Btk

Row | IC50 (TEC) [nM] | TEC/Btk (TEC) | IC50 (Btk; [1]) [nM] | IC50 (panel of kinases) [nM] | IC50 (Btk; [2]) [nM] | SMILES
1 | > 10000 | >100 | > 10000 | > 10000 | – | C[C@H](NC(=O)c1noc(C(C)(C)C)n1)c1ccc(-c2ccnc3[nH]nc(N[C@@H]4CCNC4)c23)cc1 [Example 72, 5-tert-butyl-N-[(1S)-1-[4-(3-{[(3R)-pyrrolidin-3-yl]amino}-1H-pyrazolo[3,4-b]pyridin-4-yl)phenyl]ethyl]-1,2,4-oxadiazole-3-carboxamide]
2 | > 10000 | >100 | 37.9 | > 10000 | – | C[C@@H](NC(=O)c1noc(C(C)(C)C)n1)c1ccc(-c2ccnc3[nH]nc(N[C@@H]4CCNC4)c23)cc1 [Example 73, 5-tert-butyl-N-[(1R)-1-[4-(3-{[(3R)-pyrrolidin-3-yl]amino}-1H-pyrazolo[3,4-b]pyridin-4-yl)phenyl]ethyl]-1,2,4-oxadiazole-3-carboxamide]
3 | > 10000 | – | > 10000 | > 10000 | – | CC(C)(C)c1nc(C(=O)NCc2cc(F)cc(-c3ccnc4[nH]nc(N[C@@H]5CCNC5)c34)c2)no1 [Example 74, 5-tert-butyl-N-{[3-fluoro-5-(3-{[(3R)-pyrrolidin-3-yl]amino}-1H-pyrazolo[3,4-b]pyridin-4-yl)phenyl]methyl}-1,2,4-oxadiazole-3-carboxamide]
4 | > 10000 | – | > 10000 | > 10000 | – | CC(C)(C)c1ccc(C(=O)NCc2cc(F)cc(-c3ccnc4[nH]nc(N[C@@H]5CCNC5)c34)c2)cc1 [Example 75, 4-tert-butyl-N-{[3-fluoro-5-(3-{[(3R)-pyrrolidin-3-yl]amino}-1H-pyrazolo[3,4-b]pyridin-4-yl)phenyl]methyl}benzamide]
5 | 8720 | 171 | 51.1 | 8360 | – | CC(C)(C)n1cc(C(=O)NCc2ccc(-c3ccnc4[nH]nc(N[C@@H]5CCNC5)c34)cc2F)cn1 [Example 76, 1-tert-butyl-N-{[2-fluoro-4-(3-{[(3R)-pyrrolidin-3-yl]amino}-1H-pyrazolo[3,4-b]pyridin-4-yl)phenyl]methyl}-1H-pyrazole-4-carboxamide]
6 | > 10000 | >100 | 159 | > 10000 | – | CC(C)(C)c1nnc(C(=O)NCc2ccc(-c3ccnc4[nH]nc(N[C@@H]5CCNC5)c34)cc2F)o1 [Example 77, 5-tert-butyl-N-{[2-fluoro-4-(3-{[(3R)-pyrrolidin-3-yl]amino}-1H-pyrazolo[3,4-b]pyridin-4-yl)phenyl]methyl}-1,3,4-oxadiazole-2-carboxamide]
7 | > 10000 | – | > 10000 | > 10000 | – | CC(C)(C)c1n[nH]c(C(=O)NCc2ccc(-c3ccnc4[nH]nc(N[C@@H]5CCNC5)c34)cc2F)n1 [Example 78, 3-tert-butyl-N-{[2-fluoro-4-(3-{[(3R)-pyrrolidin-3-yl]amino}-1H-pyrazolo[3,4-b]pyridin-4-yl)phenyl]methyl}-1H-1,2,4-triazole-5-carboxamide]
8 | 1730 | 276 | 6.27 | 1790 | < 10 | CC(C)(C)c1noc(C(=O)NCc2ccc(-c3ccnc4[nH]nc(N[C@@H]5CCNC5)c34)cc2F)n1 [Example 79, 3-tert-butyl-N-{[2-fluoro-4-(3-{[(3R)-pyrrolidin-3-yl]amino}-1H-pyrazolo[3,4-b]pyridin-4-yl)phenyl]methyl}-1,2,4-oxadiazole-5-carboxamide]
9 | 57 | 440 | 0.129 | 76 | < 10 | C=CC(=O)N1CC[C@@H](Nc2n[nH]c3nccc(-c4ccc(CNC(=O)c5cnn(C(C)(C)C)c5)c(F)c4)c23)C1 [Example 80, 1-tert-butyl-N-{[2-fluoro-4-(3-{[(3R)-1-(prop-2-enoyl)pyrrolidin-3-yl]amino}-1H-pyrazolo[3,4-b]pyridin-4-yl)phenyl]methyl}-1H-pyrazole-4-carboxamide]
10 | 131 | 577 | 0.227 | 89 | < 10 | C=CC(=O)N1CC[C@@H](Nc2n[nH]c3nccc(-c4ccc(CNC(=O)c5nnc(C(C)(C)C)o5)c(F)c4)c23)C1 [Example 81, 5-tert-butyl-N-{[2-fluoro-4-(3-{[(3R)-1-(prop-2-enoyl)pyrrolidin-3-yl]amino}-1H-pyrazolo[3,4-b]pyridin-4-yl)phenyl]methyl}-1,3,4-oxadiazole-2-carboxamide]
11 | 357 | 12 | 30.6 | 113 | – | C=CC(=O)N1CC[C@@H](Nc2n[nH]c3nccc(-c4ccc(CNC(=O)c5nc(C(C)(C)C)n[nH]5)c(F)c4)c23)C1 [Example 82, 3-tert-butyl-N-{[2-fluoro-4-(3-{[(3R)-1-(prop-2-enoyl)pyrrolidin-3-yl]amino}-1H-pyrazolo[3,4-b]pyridin-4-yl)phenyl]methyl}-1H-1,2,4-triazole-5-carboxamide]
12 | 28 | 493 | 0.056 | 52 | < 10 | C=CC(=O)N1CC[C@@H](Nc2n[nH]c3nccc(-c4ccc(CNC(=O)c5nc(C(C)(C)C)no5)c(F)c4)c23)C1 [Example 83, 3-tert-butyl-N-{[2-fluoro-4-(3-{[(3R)-1-(prop-2-enoyl)pyrrolidin-3-yl]amino}-1H-pyrazolo[3,4-b]pyridin-4-yl)phenyl]methyl}-1,2,4-oxadiazole-5-carboxamide]
13 | 361 | 46 | 7.83 | 87 | < 10 | C=CC(=O)N1CC[C@@H](Nc2n[nH]c3nccc(-c4ccc(CNC(=O)c5noc(CC)n5)c(F)c4)c23)C1 [Example 84, 5-ethyl-N-{[2-fluoro-4-(3-{[(3R)-1-(prop-2-enoyl)pyrrolidin-3-yl]amino}-1H-pyrazolo[3,4-b]pyridin-4-yl)phenyl]methyl}-1,2,4-oxadiazole-3-carboxamide]
14 | 110 | 579 | 0.19 | 115 | < 10 | C=CC(=O)N1CCC[C@@H](Nc2n[nH]c3nccc(-c4ccc(CNC(=O)c5noc(C(C)(C)C)n5)c(F)c4)c23)C1 [Example 85, 5-tert-butyl-N-{[2-fluoro-4-(3-{[(3R)-1-(prop-2-enoyl)piperidin-3-yl]amino}-1H-pyrazolo[3,4-b]pyridin-4-yl)phenyl]methyl}-1,2,4-oxadiazole-3-carboxamide]
15 | 213 | 880 | 0.242 | 218 | < 10 | C=CC(=O)N1CC[C@@H](Nc2n[nH]c3nccc(-c4ccc(C5(NC(=O)c6nc(C(C)(C)C)no6)CC5)cc4)c23)C1 [Example 86, 3-tert-butyl-N-{1-[4-(3-{[(3R)-1-(prop-2-enoyl)pyrrolidin-3-yl]amino}-1H-pyrazolo[3,4-b]pyridin-4-yl)phenyl]cyclopropyl}-1,2,4-oxadiazole-5-carboxamide]
16 | 685 | 479 | 1.43 | 276 | < 10 | C=CC(=O)N1CC[C@@H](Nc2n[nH]c3nccc(-c4ccc(CCNC(=O)c5noc(C(C)(C)C)n5)c(F)c4)c23)C1 [Example 87, 5-tert-butyl-N-{2-[2-fluoro-4-(3-{[(3R)-1-(prop-2-enoyl)pyrrolidin-3-yl]amino}-1H-pyrazolo[3,4-b]pyridin-4-yl)phenyl]ethyl}-1,2,4-oxadiazole-3-carboxamide]
